In US20240216352A1 (priority 2022, published 2024):

Assays:
[1] = biological target: T1, LPA1 (Homo sapiens, UniProt Q92633); assay: LPA1 antagonism (Kb) in normal human lung fibroblasts; format: cell-based; set-up: LPA1Kb=5.9 nM in normal human lung fibroblasts; endogenous in cells; host or cells: normal human lung fibroblasts
Source text: (§1) Compound A is currently in clinical development as a therapy for IPF and PF-ILD.

[2] = biological target: T1, LPA1; assay: LPA1 antagonism (Kb) in CHO cells overexpressing human LPA1; format: cell-based; set-up: expressed in transfected cells; host or cells: CHO cells
Source text: as §1

[3] = tested on: healthy participants; assay: Phase 1 Part B multiple ascending dose (MAD): blood pressure; format: in vivo, human; conditions: for Mean SBP: in mmHg (unit assumed)
Procedure: The study was performed in 3 parts in 112 healthy male and female participants, including 24 Japanese participants. Female participants were to be not of childbearing potential. The present study was designed to evaluate the safety and tolerability, PK, and exploratory PD of an oral suspension of Compound A. Parts A and B (Cohort B1 only) enrolled healthy participants and was conducted at a site in The Netherlands and Part B (Cohort B2 to B5) enrolled healthy non-Japanese participants and was conducted at a site in the United Kingdom (UK). Part C enrolled healthy Japanese participants and was conducted at the same site in the UK.
Part B was a MAD study in a planned number of 6 sequential dose escalation cohorts (10 mg QD, 30 mg QD, 30 mg BID, 60 mg BID, 125 mg BID, and ≤250 mg BID) of 8 healthy participants (6 active+2 placebo) each, under fasted conditions. However, Cohort B6 (≤250 mg BID) was cancelled because sufficient safety and PK data had been obtained at doses up to 125 mg BID. Eligible participants received study drug (Compound A or placebo) administered orally for 14 days.
Physical examinations, vital sign measurements (including orthostasis testing in Cohort A6, Cohort B3 to B5, and C1 to C3 at selected time points), 12-lead electrocardiogram (ECG), and clinical laboratory evaluations were performed at selected times throughout the study. In addition, Holter monitoring was performed for the first 24 hours post dose on Day 1 in Part A (not in FE/pH cohort), and also for the first 24 hours post dose on Day 1 and Day 14 in Parts B and C. Participants were closely monitored for adverse events (AEs). Blood samples were collected for up to 14 days (follow-up visit) after (last) study drug administration for PK analysis. In addition, blood and urine were collected for exploratory biomarker assessments and for biobanking of samples for potential analyses. Urine was collected for potential PK analysis for up to 96 hours after a single dose of Compound A or placebo was administered in the SAD part, and for up to 24 hours after the first (morning) dose of study drug on Day 1 and for up to 24 hours after the last (morning) dose of study drug on Day 14 in the MAD parts.

T1 sequence (Q92633 whole entry): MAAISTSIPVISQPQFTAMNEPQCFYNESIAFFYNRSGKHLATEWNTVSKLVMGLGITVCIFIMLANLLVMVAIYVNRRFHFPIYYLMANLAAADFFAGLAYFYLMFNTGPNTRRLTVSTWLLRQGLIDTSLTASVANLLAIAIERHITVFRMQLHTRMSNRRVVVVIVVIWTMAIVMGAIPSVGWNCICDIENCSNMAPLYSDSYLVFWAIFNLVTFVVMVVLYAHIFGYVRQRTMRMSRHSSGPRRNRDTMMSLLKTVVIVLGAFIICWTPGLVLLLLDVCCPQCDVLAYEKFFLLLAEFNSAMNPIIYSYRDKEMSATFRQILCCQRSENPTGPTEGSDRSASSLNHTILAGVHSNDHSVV

With `CCCN(C)C(=O)OCc1c(-c2ccc(O[C@H]3CCC[C@H](C(=O)O)C3)c(C)n2)nnn1C` [Compound A, (1S,3S)-3-((2-methyl-6-(1-methyl-5-(((methyl(propyl)carbamoyl)-oxy)methyl)-1H-1,2,3-triazol-4-yl)pyridin-3-yl)oxy)cyclohexane-1-carboxylic acid] the Kb [1] was 5.9 nM, the Kb [2] was 6.9 nM and the “Maximum of mean (±SD) reduction in DBP from baseline” value ([3]; MAD 10 mg QD (B1)) was 6.8 ± 2.64 mmHg. The “Time of maximum mean DBP reduction” value ([3]; MAD 10 mg QD (B1)) was 1-5 Day-h, the Mean DBP ([3]; MAD 10 mg QD, D 1 2 h) was 70.2 mmHg and the “Mean SBP” value ([3]; MAD 10 mg QD, D 1 2 h) was 112.2. The Mean DBP ([3]; MAD 10 mg QD, D 1 4 h) was 65.8 mmHg, the “Mean SBP” value ([3]; MAD 10 mg QD, D 1 4 h) was 109.5 and the Mean DBP ([3]; MAD 10 mg QD, D 1 8 h) was 68.7 mmHg. The “Mean SBP” value ([3]; MAD 10 mg QD, D 1 8 h) was 112.8, the Mean DBP ([3]; MAD 10 mg QD, D 2 24 h) was 65.3 mmHg and the “Mean SBP” value ([3]; MAD 10 mg QD, D 2 24 h) was 108.5. For the same compound, the Mean DBP ([3]; MAD 10 mg QD, D 14 312 h) was 69.3 mmHg, the “Mean SBP” value ([3]; MAD 10 mg QD, D 14 312 h) was 112.8 and the Mean DBP ([3]; MAD 10 mg QD, D 14 314 h) was 67.5 mmHg. For the same compound, the “Mean SBP” value ([3]; MAD 10 mg QD, D 14 314 h) was 113.5, the Mean DBP ([3]; MAD 10 mg QD, D 14 317 h) was 64.3 mmHg and the “Mean SBP” value ([3]; MAD 10 mg QD, D 14 317 h) was 114.5. For the same compound, the Mean DBP ([3]; MAD 10 mg QD, D 14 320 h) was 67.5 mmHg, the “Mean SBP” value ([3]; MAD 10 mg QD, D 14 320 h) was 111.2 and the Mean DBP ([3]; MAD 10 mg QD, D 15 336 h) was 66.8 mmHg. For the same compound, the “Mean SBP” value ([3]; MAD 10 mg QD, D 15 336 h) was 110.8, the “Maximum of mean (±SD) reduction in DBP from baseline” value ([3]; MAD 30 mg BID (B3)) was 11.2 ± 4.58 mmHg and the “Maximum of mean (±SD) reduction in SBP from baseline” value ([3]; MAD 30 mg BID (B3)) was 15.8 ± 10.19 mmHg. For the same compound, the “Time of maximum mean DBP reduction” value ([3]; MAD 30 mg BID (B3)) was 1-5 Day-h, the “Time of maximum mean SBP reduction” value ([3]; MAD 30 mg BID (B3)) was 1-5 Day-h and the Mean DBP ([3]; MAD 30 mg BID, D 1 2 h) was 63.3 mmHg. The “Mean SBP” value ([3]; MAD 30 mg BID, D 1 2 h) was 106.5, the Mean DBP ([3]; MAD 30 mg BID, D 1 4 h) was 62.7 mmHg and the “Mean SBP” value ([3]; MAD 30 mg BID, D 1 4 h) was 107.2. For the same compound, the Mean DBP ([3]; MAD 30 mg BID, D 1 8 h) was 63.2 mmHg, the “Mean SBP” value ([3]; MAD 30 mg BID, D 1 8 h) was 106.3 and the Mean DBP ([3]; MAD 30 mg BID, D 2 24 h) was 66.7 mmHg. For the same compound, the “Mean SBP” value ([3]; MAD 30 mg BID, D 2 24 h) was 114.7, the Mean DBP ([3]; MAD 30 mg BID, D 14 312 h) was 68.7 mmHg and the “Mean SBP” value ([3]; MAD 30 mg BID, D 14 312 h) was 119.7. The Mean DBP ([3]; MAD 30 mg BID, D 14 314 h) was 63.8 mmHg, the “Mean SBP” value ([3]; MAD 30 mg BID, D 14 314 h) was 109.7 and the Mean DBP ([3]; MAD 30 mg BID, D 14 317 h) was 61 mmHg. For the same compound, the “Mean SBP” value ([3]; MAD 30 mg BID, D 14 317 h) was 114.3, the “Mean SBP” value ([3]; MAD 30 mg BID, D 14 320 h) was 110.0 and the Mean DBP ([3]; MAD 30 mg BID, D 15 336 h) was 65.3 mmHg. For the same compound, the “Mean SBP” value ([3]; MAD 30 mg BID, D 15 336 h) was 116.3, the “Maximum of mean (±SD) reduction in DBP from baseline” value ([3]; MAD 30 mg QD (B2)) was 8.8 ± 4.62 mmHg and the “Maximum of mean (±SD) reduction in SBP from baseline” value ([3]; MAD 30 mg QD (B2)) was 10.7 ± 7.06 mmHg. The Mean DBP ([3]; MAD 30 mg QD, D 1 2 h) was 66.5 mmHg, the “Mean SBP” value ([3]; MAD 30 mg QD, D 1 2 h) was 104.8 and the Mean DBP ([3]; MAD 30 mg QD, D 1 4 h) was 67.8 mmHg. The “Mean SBP” value ([3]; MAD 30 mg QD, D 1 4 h) was 102.3, the Mean DBP ([3]; MAD 30 mg QD, D 1 8 h) was 66 mmHg and the “Mean SBP” value ([3]; MAD 30 mg QD, D 1 8 h) was 107.2. The Mean DBP ([3]; MAD 30 mg QD, D 2 24 h) was 67.3 mmHg, the “Mean SBP” value ([3]; MAD 30 mg QD, D 2 24 h) was 114.3 and the Mean DBP ([3]; MAD 30 mg QD, D 14 312 h) was 63.3 mmHg. For the same compound, the “Mean SBP” value ([3]; MAD 30 mg QD, D 14 312 h) was 110.0, the Mean DBP ([3]; MAD 30 mg QD, D 14 314 h) was 63.5 mmHg and the “Mean SBP” value ([3]; MAD 30 mg QD, D 14 314 h) was 101.7. For the same compound, the Mean DBP ([3]; MAD 30 mg QD, D 14 317 h) was 61.8 mmHg, the “Mean SBP” value ([3]; MAD 30 mg QD, D 14 317 h) was 102.3 and the Mean DBP ([3]; MAD 30 mg QD, D 14 320 h) was 63.2 mmHg. For the same compound, the “Mean SBP” value ([3]; MAD 30 mg QD, D 14 320 h) was 101.5, the Mean DBP ([3]; MAD 30 mg QD, D 15 336 h) was 62.3 mmHg and the “Mean SBP” value ([3]; MAD 30 mg QD, D 15 336 h) was 107.3. The “Maximum of mean (±SD) reduction in DBP from baseline” value ([3]; MAD 60 mg BID (B4)) was 8.3 ± 6.89 mmHg, the “Maximum of mean (±SD) reduction in SBP from baseline” value ([3]; MAD 60 mg BID (B4)) was 17.5 ± 11.31 mmHg and the “Time of maximum mean DBP reduction” value ([3]; MAD 60 mg BID (B4)) was 3-4 Day-h. The Mean DBP ([3]; MAD 60 mg BID, D 1 2 h) was 64.5 mmHg, the “Mean SBP” value ([3]; MAD 60 mg BID, D 1 2 h) was 110.2 and the Mean DBP ([3]; MAD 60 mg BID, D 1 4 h) was 66 mmHg. For the same compound, the “Mean SBP” value ([3]; MAD 60 mg BID, D 1 4 h) was 106.7, the Mean DBP ([3]; MAD 60 mg BID, D 1 8 h) was 64.7 mmHg and the “Mean SBP” value ([3]; MAD 60 mg BID, D 1 8 h) was 109.3. For the same compound, the Mean DBP ([3]; MAD 60 mg BID, D 2 24 h) was 65.7 mmHg, the “Mean SBP” value ([3]; MAD 60 mg BID, D 2 24 h) was 118.8 and the Mean DBP ([3]; MAD 60 mg BID, D 14 312 h) was 64.8 mmHg. For the same compound, the “Mean SBP” value ([3]; MAD 60 mg BID, D 14 312 h) was 111.8, the Mean DBP ([3]; MAD 60 mg BID, D 14 314 h) was 64 mmHg and the “Mean SBP” value ([3]; MAD 60 mg BID, D 14 314 h) was 110.5. For the same compound, the Mean DBP ([3]; MAD 60 mg BID, D 14 317 h) was 62.5 mmHg, the “Mean SBP” value ([3]; MAD 60 mg BID, D 14 317 h) was 114.8 and the Mean DBP ([3]; MAD 60 mg BID, D 14 320 h) was 63 mmHg. For the same compound, the “Mean SBP” value ([3]; MAD 60 mg BID, D 14 320 h) was 115.5, the Mean DBP ([3]; MAD 60 mg BID, D 15 336 h) was 64.5 mmHg and the “Mean SBP” value ([3]; MAD 60 mg BID, D 15 336 h) was 114.5. For the same compound, the “Maximum of mean (±SD) reduction in DBP from baseline” value ([3]; MAD 125 mg BID (B5)) was 14.7 ± 5.68 mmHg, the “Maximum of mean (±SD) reduction in SBP from baseline” value ([3]; MAD 125 mg BID (B5)) was 14.5 ± 5.86 mmHg and the “Time of maximum mean DBP reduction” value ([3]; MAD 125 mg BID (B5)) was 12-12 Day-h. The Mean DBP ([3]; MAD 125 mg BID, D 1 2 h) was 62.3 mmHg, the “Mean SBP” value ([3]; MAD 125 mg BID, D 1 2 h) was 112.2 and the Mean DBP ([3]; MAD 125 mg BID, D 1 4 h) was 64.7 mmHg. For the same compound, the “Mean SBP” value ([3]; MAD 125 mg BID, D 1 4 h) was 112.2, the Mean DBP ([3]; MAD 125 mg BID, D 1 8 h) was 64.7 mmHg and the “Mean SBP” value ([3]; MAD 125 mg BID, D 1 8 h) was 107.3. The Mean DBP ([3]; MAD 125 mg BID, D 2 24 h) was 66.3 mmHg, the “Mean SBP” value ([3]; MAD 125 mg BID, D 2 24 h) was 118.8 and the Mean DBP ([3]; MAD 125 mg BID, D 14 312 h) was 62 mmHg. For the same compound, the “Mean SBP” value ([3]; MAD 125 mg BID, D 14 312 h) was 111.3, the Mean DBP ([3]; MAD 125 mg BID, D 14 314 h) was 65 mmHg and the “Mean SBP” value ([3]; MAD 125 mg BID, D 14 314 h) was 116.0. For the same compound, the Mean DBP ([3]; MAD 125 mg BID, D 14 317 h) was 59.2 mmHg, the “Mean SBP” value ([3]; MAD 125 mg BID, D 14 317 h) was 116.3 and the Mean DBP ([3]; MAD 125 mg BID, D 14 320 h) was 61.8 mmHg. The “Mean SBP” value ([3]; MAD 125 mg BID, D 14 320 h) was 114.5, the Mean DBP ([3]; MAD 125 mg BID, D 15 336 h) was 63 mmHg and the “Mean SBP” value ([3]; MAD 125 mg BID, D 15 336 h) was 111.3. For the same compound, the “BP reductions versus placebo” value ([3]; MAD BID groups) was “no clear differences between placebo and the Compound A groups” and the “Dose dependence of mean SBP and DBP reductions” value ([3]; MAD QD groups) was “reductions generally occurred in a Compound A dose-dependent manner”.
